Source: patent US20260117174A1, “PRODUCTION METHOD OF THREE-DIMENSIONAL CELL CULTURE, CULTURE METHOD OF THREE-DIMENSIONAL CELL CULTURE, THREE-DIMENSIONAL CELL CULTURE, AND EVALUATION METHOD OF TEST SUBSTANCE” (FUJIFILM Corporation, priority 2023, published 2026)

Test system: three-dimensional co-culture of astrocytes, neurons and microglia
Test: Intercellular interactions during neuroinflammation: NF-κB p65 immunostaining of the three-dimensional co-culture after LPS treatment
Type: cell-based, human
Conditions: 100 ng/ml final concentration; fixed 0, 0.5, 1, 3, 6 and 24 hours after treatment; co-culture cultured for 3 weeks
Description: • The three-dimensional co-culture that had been cultured for 3 weeks was treated with Lipopolysaccharide (LPS) from E. coli 0127 (FUJIFILM Wako Pure Chemical Corporation, 124-05151) such that the final concentration was 100 ng/ml, and fixed by treating, for 30 minutes, with a 4% paraformaldehyde-phosphate buffer solution (FUJIFILM Wako Pure Chemical Corporation, 161-20141) at 0, 0.5, 1, 3, 6, and 24 hours after the treatment. After washing with PBS(-), the co-culture was treated with Triton (registered trademark) X-100 solution (BioVision, 2104-100) diluted to 0.4% with PBS(-) for 15 minutes to perform permeation treatment. After the permeation treatment, the co-culture was treated with a BSA solution (Sigma-Aldrich, A416) adjusted at a concentration of 4% with PBS(-) for 30 minutes to perform blocking. […] After washing with PBS(-), imaging was performed with a confocal quantitative image cytometer CQ1 (Yokogawa Electric Corporation, Cell Voyager (registered trademark) CQ1) to acquire images.

**Q.** For Lipopolysaccharide [LPS], which “nuclear localization of NF-κB after the LPS treatment” value is on record?
**A.** The value was “change in nuclear localization of NF-κB”.
